In US7405223B2, “Treating allergic and inflammatory conditions” (priority 2000, dated 2008):
Marks after values point to notes of the source that are not given here.

What was measured:
[1] = log-transformed values, 7.5 mg once daily
clinical [2] = settings: both, human, plasma, po, 5 mg
clinical [3] = settings: human, plasma, po, 7.5 mg, Day 14, 7.5 mg once daily oral; for Cmax: mean (% CV); for half-life: t1/2, mean (% CV)
[4] = tested on: seasonal allergic rhinitis patients; assay: Double-blinded, randomized clinical trials in seasonal allergic rhinitis patients
[5] = Day 10, DL 5 mg once daily oral
[6] = steady state, Day 10, DL 5 mg once daily oral

**Q.** With `Oc1cnc2c(c1)CCc1cc(Cl)ccc1C2=C1CCNCC1` [3-OH desloratadine, 3-hydroxydesloratadine] as the compound, how does the “t1/2, arithmetic mean” value [5] read?
**A.** Its value is 36.0 h.

**Q.** And the “t1/2, harmonic mean” value [5]?
**A.** The value was 34.0^c hr.

**Q.** What about the “AUC(0-24 hr), arithmetic mean” value [6] of the same compound?
**A.** The value was 32.3 ng·h/mL.

**Q.** What about the “AUC(0-24 hr), geometric mean” value [6] of the same compound?
**A.** The value was 30.4 ng·h/mL.

**Q.** What about the “Cmax, arithmetic mean” value [6] of the same compound?
**A.** Its value is 1.99 ng/mL.

**Q.** And the “Cmax, geometric mean” value [6]?
**A.** Its value is 1 .87 ng/mL.

**Q.** What about the “Tmax, arithmetic mean” value [6] of the same compound?
**A.** The value was 4.76 h.

**Q.** And the “Tmax, median (geometric mean)” value [6]?
**A.** The value was 5 h.

**Q.** Which “increase in t1/2 in elderly subjects >=65 years old compared with younger subjects” value (5 mg once daily for 10 days) does the source give for `Clc1ccc2c(c1)CCc1cccnc1C2=C1CCNCC1` [desloratadine] here?
**A.** Its value is about 30%.

**Q.** And the “AUC higher in female subjects compared with male subjects” value [1]?
**A.** The value was 3%.

**Q.** And the “Cmax higher in female subjects compared with male subjects” value [1]?
**A.** The value was 10%.

**Q.** What about the concentration at 8 day (clinical [2]) of the same compound?
**A.** The concentration at 8 day was 1.31 ng/mL.

**Q.** What about the concentration at 9 day (clinical [2]) of the same compound?
**A.** The concentration at 9 day was 1.33 ng/mL.

**Q.** And the Cmax (clinical [3]; female, Black women)?
**A.** Its Cmax is 6.73 ng/mL.

**Q.** And the Cmax (clinical [3]; female, White women)?
**A.** The Cmax was 5.46 ng/mL.

**Q.** What about the half-life (clinical [3]; female, Black women) of the same compound?
**A.** The half-life was 35.4 h.

**Q.** And the half-life (clinical [3]; female, White women)?
**A.** The half-life was 29.9 h.

**Q.** And the Cmax (clinical [3]; male, White men)?
**A.** The Cmax was 6.05 ng/mL.

**Q.** And the half-life (clinical [3]; male, Black men)?
**A.** The half-life was 42 h.

**Q.** And the half-life (clinical [3]; male, White men)?
**A.** The half-life was 36 h.

**Q.** What about the “reduction of nasal symptoms versus placebo” value ([4]; 5 mg) of the same compound?
**A.** Its value is “significantly (p<0.01) more effective than placebo”.

**Q.** What about the total symptom scores ([4]; 5 mg once daily) of the same compound?
**A.** Its total symptom scores is “significantly reduced”.

**Q.** And the “AM NOW total symptom score” value ([4]; 24 hours after dose, entire 5 mg to 20 mg dosage range)?
**A.** Its value is “Statistically significant (p<0.05) reductions were maintained for the full 24 hour dosing interval”.

**Q.** And the “differences in effectiveness across subgroups defined by gender, age, or race” value ([4]; entire 5 mg to 20 mg dosage range)?
**A.** Its value is “no significant differences”.
